Measured values as given in publication PMC6278664, “Highly Cancer Selective Antiproliferative Activity of Natural Prenylated Flavonoids” (Molecules, 2018).
Where two headings read alike, the source gives them in different places.

Columns and labels:
[1] = tested on: MCF 10A human mammary epithelial cells line; assay: SRB antiproliferative assay, MCF 10A (normal); type: cell-based; settings: 72 h, mean ± SD, read-out: Normal cell line, IC50, MCF-10A
Description: (§1) We determined the effect of various structural factors in the substrates on the antiproliferative activity against those selected to the study cell lines: the location and/or the presence of the prenyl group, the chalcone/flavanone skeleton and the presence of an O-methyl group at C-5 in flavanones. Flavonoids presented in Figure 1 were tested for the antiproliferative activity towards eight cancer cell lines including estrogen-dependent (MCF7 and T-47D) and two normal ones (HLMEC and MCF 10A). The in vitro antiproliferative activity was measured using SRB assay. The results are presented in Figure 2 (and in the supplement in Table S1). The antiproliferative activity was measured separately for each of the experiments and given as the average IC50 (the concentration of tested compound which inhibits 50% of the cells population). Cisplatin (CP), a common anticancer drug, was used as a positive control.
(§2) The following established in vitro cell lines were applied: MCF7, T-47D, MDA-MB-231 (human breast cancer cell line), A2780 (human ovarian cancer cell line), A2780cis (human cisplatin-resistant ovarian cancer cell line), PC-3 and DU 145 (human prostate cancer cell lines), HT-29 (human colon cancer cell line), HLMEC (human lung microvascular endothelial cell line), and MCF 10A (human mammary epithelial cells line).
(§3) The cell lines: MDA-MB-231, HT-29, PC-3, DU 145, and MCF 10A were obtained from the American Type Culture Collection (Rockville, MD, USA), MCF7, T-47D, A2780, A2780cis from the European Collection Cell Cultures (Sigma-Aldrich, Chemie GmbH, Steinheim, Germany), while the HLMEC cell line was obtained by M. Paprocka from the institute. All cell lines are being maintained in the Institute of Immunology and Experimental Therapy (Wrocław, Poland). DU 145 and MCF7 cells were cultured in Eagle medium (supplemented with 4mM L-glutamine, 10% fetal bovine serum, 1 mM sodium pyruvate for DU 145 cells or 2 mM L-glutamine, 1% mem non-essential amino acid solution and 8 µg/mL insulin and 10% fetal bovine serum for MCF7). […] HT-29 and T-47D cell lines were cultured in RPMI 1640 + OPTI-MEM medium supplemented with 2 mM L-glutamine, 5% fetal bovine serum and 8 µg/mL of insulin (T-47D) or 1 mM sodium pyruvate (HT-29). MDA-MB-231, PC-3 and HLMEC cell lines were cultured in RPMI 1640 medium supplemented with 2 mM L-glutamine and 10% fetal bovine serum. Medium for MCF 10A cell line consisted of F-12 nutrient mixture supplemented with cholera toxin (0.05 µg/mL), insulin (10 µg/mL), hydrocortisone (0.5 µg/mL), 5% horse serum, and EGFH (20 ng/mL). All the culture media contained antibiotics: 100 units/mL penicillin (Polfa Tarchomin SA, Warsaw, Poland), and 100 µg/mL streptomycin (Sigma-Aldrich, Chemie GmbH, Steinheim, Germany). All cell lines were grown at 37 °C with 5% CO2 humidified atmosphere.
(§4) Twenty-four hours before the incubation with the tested compounds, the cells were seeded in 96-plates (Sarstedt, Germany) at a density of 1 × 10^4 cells per well (0.75 × 10^4 per well for MCF7 and 1 × 10^3 per well for HLMEC) in 100 µL of a culture medium.
(§5) Each agent at each concentration (from 0.1 to 100 µg/mL) was tested in a single experiment, which was repeated four to five times. […] Cisplatin was used as a reference drug.
(§6) The results were calculated as the IC50 (inhibitory concentration 50%)—the concentration of the tested compound which inhibits 50% of the cells population. IC50 values were calculated for each experiment separately and mean values ± SD are presented in the Table S1 in the Supplementary Materials. Each compound at each concentration was tested in triplicate in a single experiment, which was repeated four to five times.
(§7) The cells were fixed in situ by gently adding cold 50% trichloroacetic acid (50 µL per well). The plates were incubated at 4 °C for 1h and then washed five times with tap water. […]

[2] = tested on: DU 145 human prostate cancer cell line; assay: SRB antiproliferative assay, DU 145; type: cell-based; settings: for Selectivity index SIA, Du-145: IC50 HLMEC / IC50 Du-145; for Selectivity index SIB, Du-145: IC50 MCF-10A / IC50 Du-145; for IC50: SRB, 72 h, mean ± SD
Description: as §1, §2, §3, §4, §5, §6, §7

[3] = cited from earlier work
[4] = tested on: A2780cis human cisplatin-resistant ovarian cancer cell line; assay: SRB antiproliferative assay, A2780cis; type: cell-based; settings: for Selectivity index SIA, A-2780cis: IC50 HLMEC / IC50 A-2780cis; for Selectivity index SIB, A-2780cis: IC50 MCF-10A / IC50 A-2780cis; for IC50: SRB, 72 h, mean ± SD, read-out: Cancer cell line, IC50, A-2780cis
Description: as §1, §2, §3, §4, §5, §6, §7

[5] = tested on: MDA-MB-231 human breast cancer cell line; assay: SRB antiproliferative assay, MDA-MB-231; type: cell-based; settings: for Selectivity index SIA, MDA-MB-231: IC50 HLMEC / IC50 MDA-MB-231; for Selectivity index SIB, MDA-MB-231: IC50 MCF-10A / IC50 MDA-MB-231; for IC50: SRB, 72 h, mean ± SD
Description: as §1, §2, §3, §4, §5, §6, §7

[6] = tested on: A2780 human ovarian cancer cell line; assay: SRB antiproliferative assay, A2780; type: cell-based; settings: for Selectivity index SIA, A-2780: IC50 HLMEC / IC50 A-2780; for Selectivity index SIB, A-2780: IC50 MCF-10A / IC50 A-2780; for IC50: SRB, 72 h, mean ± SD, read-out: Cancer cell line, IC50, A-2780
Description: as §1, §2, §3, §4, §5, §6, §7

[7] = tested on: HLMEC human lung microvascular endothelial cell line; assay: SRB antiproliferative assay, HLMEC (normal); type: cell-based; settings: 72 h, mean ± SD
[8] = tested on: HT-29 human colon cancer cell line; assay: SRB antiproliferative assay, HT-29; type: cell-based; settings: for Selectivity index SIA, HT-29: IC50 HLMEC / IC50 HT-29; for Selectivity index SIB, HT-29: IC50 MCF-10A / IC50 HT-29; for IC50: SRB, 72 h, mean ± SD
[9] = tested on: PC-3 human prostate cancer cell line; assay: SRB antiproliferative assay, PC-3; type: cell-based; settings: for Selectivity index SIA, PC-3: IC50 HLMEC / IC50 PC-3; for Selectivity index SIB, PC-3: IC50 MCF-10A / IC50 PC-3; for IC50: SRB, 72 h, mean ± SD
Description: as §1, §2, §3, §4, §5, §6, §7

[10] = tested on: T-47D human breast cancer cell line; assay: SRB antiproliferative assay, T-47D; type: cell-based; settings: for Selectivity index SIA, T-47D: IC50 HLMEC / IC50 T-47D; for Selectivity index SIB, T-47D: IC50 MCF-10A / IC50 T-47D; for IC50: SRB, 72 h, mean ± SD
Description: as §1, §2, §3, §4, §5, §6, §7

[11] = tested on: MCF7 human breast cancer cell line; assay: SRB antiproliferative assay, MCF7; type: cell-based; settings: for Selectivity index SIA, MCF-7: IC50 HLMEC / IC50 MCF-7; for Selectivity index SIB, MCF-7: IC50 MCF-10A / IC50 MCF-7; for IC50: SRB, 72 h, mean ± SD
Description: as §1, §2, §3, §4, §5, §6, §7

Row | Molecule | Selectivity index SIA, Du-145 [2] | Selectivity index SIB, Du-145 [2] | Selectivity index SIA, A-2780cis [4] | Selectivity index SIB, A-2780cis [4] | Selectivity index SIA, MDA-MB-231 [5] | Selectivity index SIB, MDA-MB-231 [5] | Selectivity index SIA, A-2780 [6] | Selectivity index SIB, A-2780 [6] | Selectivity index SIA, HT-29 [8] | Selectivity index SIB, HT-29 [8] | Selectivity index SIA, PC-3 [9] | Selectivity index SIB, PC-3 [9] | Selectivity index SIA, T-47D [10] | Selectivity index SIB, T-47D [10] | Selectivity index SIA, MCF-7 [11] | Selectivity index SIB, MCF-7 [11] | IC50 ([1]; Homo sapiens, MCF-10A) | IC50 ([2]; Homo sapiens, DU-145) | IC50 ([4]; Homo sapiens, A2780cis) | IC50 ([5]; Homo sapiens, MDA-MB-231) | other results
1 | 8-(3,3-dimethylallyl)-4,7-dihydroxy-5-methoxyflavanone [IXN] | 0.21 | 1.22 | 1.07 | 6.19 | 0.29 | 1.66 | 1.58 | 9.09 | 0.41 | 2.36 | 0.23 | 1.35 | 0.47 | 2.70 | 0.75 | 4.31 |  |  |  |  | IC50 [1]: 72.1 ± 21.7 µM; IC50 [2]: 59.2 ± 5.73 µM; Glucuronidation ([3]; in vivo): > 90%; IC50 [4]: 11.7 ± 1.44 µM; IC50 [5]: 43.3 ± 10.3 µM; IC50 [6]: 7.93 ± 1.65 µM; IC50 [7]: 12.5 ± 5.65 µM; IC50 [8]: 30.6 ± 1 µM; IC50 [9]: 53.2 ± 10.6 µM; IC50 [10]: 26.8 ± 6.44 µM; IC50 [11]: 16.7 ± 0.88 µM
2 | COc1cc(O)c(CC=C(C)C)c(O)c1C(=O)CCc1ccc(O)cc1 [2HXN, 3′-(3,3-dimethylallyl)-4,2′,4′-trihydroxy-6′-methoxy-α,β-dihydrochalcone] | 1.09 | 5.56 | 1.22 | 6.22 | 1.41 | 7.19 | 7.87 | 40.03 | 1.16 | 5.89 | 0.87 | 4.43 | 1.95 | 9.91 | 1.41 | 7.15 | 72 ± 8.55 µM | 13 ± 4.2 µM | 11.6 ± 3.36 µM | 10 ± 3.26 µM | IC50 ([6]; Homo sapiens, A2780): 1.8 ± 0.64 µM; SIA against A2780, times higher than the reference ([6]; ratio of SIA to SIA of cisplatin): 5-8 times; IC50 ([7]; Homo sapiens, Endothelial cell): 14.2 ± 4.24 µM; IC50 ([8]; Homo sapiens, HT-29): 12.2 ± 2.99 µM; IC50 ([9]; Homo sapiens): 16.3 ± 5.22 µM; IC50 ([10]; Homo sapiens, T47D): 7.27 ± 3.05 µM; IC50 ([11]; Homo sapiens, MCF7, 72 h): 10.1 ± 2.31 µM
3 | CC(C)=CCc1c(O)cc2c(c1O)C(=O)CC(c1ccc(O)cc1)O2 (stereo not drawn) [6PN, 6-(3,3-dimethylallyl)-5,7,4′-trihydroxyflavanone] | 0.17 | 1.38 | 0.17 | 1.35 | 0.22 | 1.76 | 0.31 | 2.49 | 0.21 | 1.70 | 0.18 | 1.46 | 0.86 | 6.87 | 0.32 | 2.54 | 110 ± 33 µM | 79.6 ± 8.89 µM | 81.7 ± 17.7 µM | 62.6 ± 19.5 µM | IC50 ([6]; Homo sapiens, A2780): 44.2 ± 14.7 µM; IC50 ([7]; Homo sapiens, Endothelial cell): 13.7 ± 5.16 µM; IC50 ([8]; Homo sapiens, HT-29): 64.6 ± 17.1 µM; IC50 ([9]; Homo sapiens): 75.5 ± 29.8 µM; IC50 ([10]; Homo sapiens, T47D): 16 ± 3.74 µM; IC50 ([11]; Homo sapiens, MCF7, 72 h): 43.2 ± 4.37 µM
4 | CC(C)=CCc1c(O)cc(O)c2c1OC(c1ccc(O)cc1)CC2=O (stereo not drawn) [8PN, 8-(3,3-dimethylallyl)-5,7,4′-trihydroxyflavanone] | 0.39 | 1.50 | 0.36 | 1.37 | 0.37 | 1.42 | 0.92 | 3.50 | 0.27 | 1.00 | 0.47 | 1.77 | 0.90 | 3.40 | 0.48 | 1.83 | 90.7 ± 19.8 µM | 60.6 ± 6.66 µM | 66.4 ± 10.1 µM | 63.8 ± 7.27 µM | Glucuronidation ([3]; breast tissue study of Bolca and co-workers): > 90%; IC50 ([6]; Homo sapiens, A2780): 25.9 ± 8.32 µM; IC50 ([7]; Homo sapiens, Endothelial cell): 23.9 ± 10.9 µM; IC50 ([8]; Homo sapiens, HT-29): 89.8 ± 3.42 µM; IC50 ([9]; Homo sapiens): 51.4 ± 11.3 µM; IC50 ([10]; Homo sapiens, T47D): 26.7 ± 9.7 µM; IC50 ([11]; Homo sapiens, MCF7, 72 h): 49.5 ± 7.36 µM
5 | N.N.[Cl][Pt][Cl] [Cisplatin (CP), Cisplatin, reference compound] |  |  |  |  |  |  |  |  |  |  |  |  |  |  |  |  |  |  |  |  | IC50 [1]: 13.6 ± 4.93 µM; IC50 [2]: 2.73 ± 1.32 µM; IC50 [4]: 12.1 ± 1.27 µM; IC50 [5]: 16.9 ± 5.45 µM; IC50 [6]: 0.97 ± 0.46 µM; IC50 [7]: 0.93 ± 0.28 µM; IC50 [8]: 9.56 ± 3.75 µM; IC50 [9]: 11.4 ± 2.23 µM; IC50 [10]: 22.2 ± 7.32 µM; IC50 [11]: 6.29 ± 1.05 µM
6 | O=C1C[C@@H](c2ccc(O)cc2)Oc2cc(O)cc(O)c21 [NG, Naringenin, reference compound] | 0.88 | 1.40 | 1.07 | 1.71 | 0.71 | 1.13 | 1.17 | 1.87 | 0.90 | 1.43 | 0.68 | 1.09 | 1.12 | 1.79 | 0.90 | 1.43 | 187 ± 72.4 µM | 134 ± 12.9 µM | 109 ± 17 µM | 166 ± 82.4 µM | IC50 ([6]; Homo sapiens, A2780): 100 ± 4.77 µM; IC50 ([7]; Homo sapiens, Endothelial cell): 117 ± 32.3 µM; IC50 ([8]; Homo sapiens, HT-29): 131 ± 28.2 µM; IC50 ([9]; Homo sapiens): 171 ± 28.8 µM; IC50 ([10]; Homo sapiens, T47D): 105 ± 48.3 µM; IC50 ([11]; Homo sapiens, MCF7, 72 h): 131 ± 6.11 µM; IC50 [11]: 187 ± 72.4 µM
